Measured values as given in patent US10722491B2, “Phenol compound and combination of same with a benzodiazepine fused to 1,4-dihydropyridine for treating diseases of the central nervous and vascular systems” (UNIVERSIDAD DE LA HABANA, priority 2016, dated 2020).

Key:
[1] = KM-34 capacity to reduce DPPH radicals; assay type: biochemical; settings: DPPH 100 μM, 30 minutes of reaction; read-out: IC50, reduction of DPPH radicals
Method: FIG. 1. Percentage reduction of DPPH (100 μM) by KM-34 (5-400 μM) was determined by changing in the absorbance at 550 nm from a target containing only DPPH and vehicle (zero concentration of KM −34 or AA), after 30 minutes of reaction. Values are expressed as the mean ± SD (n=3). *P<0.05 with respect to the vehicle.
One of the most commonly used methods to estimate antioxidant activity is to evaluate the ability of different compounds to reduce DPPH radicals, which can be determined spectrophotometrically (Brand-Williams et al., 1995). […] Electron delocalization causes the intense violet coloration of the DPPH radical form when it is prepared in ethanol solution (Molyneux et al., 2004).
The IC 50 value obtained for KM was approximately 2.4 times lower than that obtained for ascorbic acid (AA) used as the reference compound.

[2] = test system: transient occlusion of the common carotid arteries; experiment: Vascular dementia model (transient occlusion of common carotid arteries), Morris maze; assay type: in vivo, male Swiss albino mice; settings: JM-20 4 mg/kg p.o., 1 hour after reperfusion and all days of the test; vs animals without treatment
Method: As a model of vascular dementia, the animals (male Swiss albino mice) underwent transient occlusion of the common carotid arteries for 20 minutes and cognitive impairment was evaluated through the Morris labyrinthine assay. […] As a model of permanent cortical ischemia, thermo-coagulation of the pials arteries was induced and the percentage of asymmetry was quantified.

Structure (SMILES)	IC50 [1] [µM]	Escape latency time, Morris maze [2]
O=C1O[C@H]([C@@H](O)CO)C(O)=C1O [AA, ascorbic acid, reference compound]	38.7	
CCOC(=O)C1=C(C)NC2=C(C=Nc3ccccc3N2)C1c1ccccc1[N+](=O)[O-] (centres unmarked) [JM-20, 3-ethoxycarbonyl-2-methyl-4-(2-nitrophenyl)-4,11-dihydro-1H-pyrido[2,3-b][1,5]benzodiazepine]		significantly (p<0.05)
